The results in this text go back to publication PMC9780703, “Unconventional interactions of the TRPV4 ion channel with beta-adrenergic receptor ligands” (Life Science Alliance, 2022).

Counter-ions that a name gives are not always drawn. Like-named read-outs stand apart in the source and are kept apart here.

Common to all, as to assay type: cell-based
Experiment [1] has as its target T1, TRPV4 (Homo sapiens, UniProt Q9HBA0).
T1 construct: full-length wild type, transiently transfected HEK293, outside-out patches
Nature of the experiment: outside-out patch clamp of HEK293 cells expressing hTRPV4, % inhibition of GSK-activated current at […].

Experiment [2] deals with T1, TRPV4. As to the kind of experiment: outside-out patch clamp of HEK293 cells expressing hTRPV4, activation dose-response (KD from Hill fit).
Experiment [3] has as its target T1, TRPV4. As to the kind of experiment: outside-out patch clamp of HEK293 cells expressing hTRPV4, dose-response, single-channel recordings and site-directed mutagenesis (apparent KD from Hill fit).
Experiment [4] has as its target T1, TRPV4. Nature of the experiment: outside-out patch clamp of HEK293 cells expressing hTRPV4, % inhibition of GSK-activated current at […]. The source holds these as a separate data set.
The target in experiment [5] is T1, TRPV4. Described as above. This is another data set of the same source.
In experiment [6] the target is T1, TRPV4. Nature of the experiment: outside-out patch clamp of HEK293 cells expressing hTRPV4, inhibition of GSK-activated currents, dose-response (apparent KD from Hill fit).
For experiment [7], the target named is T1, TRPV4. As to the kind of experiment: outside-out patch clamp of HEK293 cells expressing hTRPV4, % inhibition of GSK-activated current at […]. This is another data set of the same source.
In experiment [8] the target is T1, TRPV4. The experiment is described as above. The source holds these as a separate data set.

T1 sequence (Q9HBA0 whole entry): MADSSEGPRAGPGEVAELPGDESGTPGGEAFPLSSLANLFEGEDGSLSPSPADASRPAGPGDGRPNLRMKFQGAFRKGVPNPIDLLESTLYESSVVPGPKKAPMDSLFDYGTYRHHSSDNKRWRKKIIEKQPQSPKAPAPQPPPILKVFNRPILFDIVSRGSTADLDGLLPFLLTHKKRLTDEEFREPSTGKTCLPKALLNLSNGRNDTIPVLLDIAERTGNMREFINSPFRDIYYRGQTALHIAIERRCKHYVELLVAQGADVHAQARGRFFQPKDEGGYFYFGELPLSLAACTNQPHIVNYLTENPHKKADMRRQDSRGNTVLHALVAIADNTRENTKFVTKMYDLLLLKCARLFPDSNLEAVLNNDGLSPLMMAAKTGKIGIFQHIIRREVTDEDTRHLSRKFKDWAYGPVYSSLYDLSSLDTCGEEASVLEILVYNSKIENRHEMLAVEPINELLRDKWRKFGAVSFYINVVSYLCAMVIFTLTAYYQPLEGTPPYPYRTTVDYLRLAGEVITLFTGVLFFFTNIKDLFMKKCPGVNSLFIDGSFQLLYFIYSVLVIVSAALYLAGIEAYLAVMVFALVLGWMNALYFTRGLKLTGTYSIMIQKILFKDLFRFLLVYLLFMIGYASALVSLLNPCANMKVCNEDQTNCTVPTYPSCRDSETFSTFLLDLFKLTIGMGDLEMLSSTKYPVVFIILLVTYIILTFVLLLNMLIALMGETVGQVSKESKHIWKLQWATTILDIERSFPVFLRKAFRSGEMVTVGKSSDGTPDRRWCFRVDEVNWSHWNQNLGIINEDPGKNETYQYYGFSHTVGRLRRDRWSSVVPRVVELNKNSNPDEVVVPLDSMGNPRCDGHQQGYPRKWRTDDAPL

Regarding `CC(C)(C)NC[C@H](O)c1ccc(O)c(CO)c1` [levalbuterol], the inhibition at 500 µM at TRPV4 [1] worked out at 42.6%.
As for `CC(C)C[C@H](NC(=O)c1cc2ccccc2s1)C(=O)N1CCN(C(=O)[C@H](CO)NS(=O)(=O)c2ccc(Cl)cc2Cl)CC1` [GSK, GSK1016790A], on TRPV4 [2], the Kd came out at 0.101 µM.
As for `CC(C)(C)NCC(O)c1ccc(O)c(CO)c1` (racemic) [salbutamol, α1-[(tert-butylamino)methyl]-4-hydroxy-1,3-benzenedimethanol hemisulfate salt], on TRPV4 [3], the Kd was 81.3 µM.
As to `CC(C)NCC(O)c1cc(O)cc(O)c1` (stereo not drawn) [metaproterenol, α-[(isopropylamino)methyl]-3,5-dihydroxybenzyl alcohol hemisulfate salt], the inhibition at 500 µM on TRPV4 [4] was found to be 51.7%.
As to `CC(C)NCC(O)c1ccc(O)c(O)c1` (centres unmarked) [isoprenaline, 1-[3′,4′-dihydroxyphenyl]-2-isopropylaminoethanol hydrochloride], the inhibition at 500 µM against TRPV4 [5] amounted to 51.6%.
Regarding `Cc1ccc(OC[C@H](O)[C@@H](C)NC(C)C)c2c1CCC2` (relative stereo) [ICI, [2R,3R]-rel-3-isopropylamino-1-[7-methylindan-4-yloxy]-butan-2-ol hydrochloride], at TRPV4 [6], the Kd stood at 3.9 µM.
In the case of `CC(C)(C)NCC(O)c1cc(Cl)c(N)c(Cl)c1` (stereo not drawn) [clenbuterol, 4-amino-α-[t-butylaminomethyl]-3,5-dichlorobenzyl alcohol hydrochloride], the inhibition at 500 µM at TRPV4 [7] turned out to be 71.7%.
With `CC(C)(C)NCC(O)c1cc(O)cc(O)c1` (centres unmarked) [terbutaline, 5-[2-[(1,1-dimethylethyl)amino]-1-hydroxyethyl]-1,3-benzenediol hemisulfate salt], testing at 500 µM at TRPV4 [8] gave an inhibition of 54.4%.
